Measured values taken from ChEMBL document CHEMBL4184249, “Structural development of tetrachlorophthalimides as liver X receptor β (LXRβ)-selective agonists with improved aqueous solubility” (Bioorg Med Chem Lett, 2018).
Values after ≈ are worked out from the molar mass of the structure shown. Active and inactive are the calls of the source. The rule behind the calls is not given here.

Legend:
[1] = molecular target: T1, Oxysterols receptor LXR-alpha (Mus musculus) (UniProt Q9Z0Y9); test: Agonist activity at mouse LXRalpha expressed in HEK293 cells co-expressing CMX-beta-galactosidase at 30 uM incubated for 16 hrs by luciferase reporter gene assay; format: cell-based
T1 sequence (whole entry): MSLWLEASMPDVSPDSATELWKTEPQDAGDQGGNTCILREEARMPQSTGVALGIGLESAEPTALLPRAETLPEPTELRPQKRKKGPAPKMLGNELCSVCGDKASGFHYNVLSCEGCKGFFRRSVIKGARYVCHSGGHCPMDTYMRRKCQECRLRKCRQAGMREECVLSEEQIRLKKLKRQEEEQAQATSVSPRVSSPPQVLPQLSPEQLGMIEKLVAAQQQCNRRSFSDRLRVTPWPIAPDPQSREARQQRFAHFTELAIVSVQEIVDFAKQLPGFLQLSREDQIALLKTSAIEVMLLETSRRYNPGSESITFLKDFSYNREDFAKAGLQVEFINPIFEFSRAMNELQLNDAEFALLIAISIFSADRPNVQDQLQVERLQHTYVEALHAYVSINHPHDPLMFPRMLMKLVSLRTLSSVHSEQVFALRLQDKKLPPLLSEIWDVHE

[2] = molecular target: T2, Oxysterols receptor LXR-beta (Homo sapiens, UniProt P55055); test: Agonist activity at human LXRbeta expressed in HEK293 cells co-expressing CMX-beta-galactosidase incubated for 16 hrs by luciferase reporter gene assay; format: cell-based
T2 sequence (P55055 whole entry): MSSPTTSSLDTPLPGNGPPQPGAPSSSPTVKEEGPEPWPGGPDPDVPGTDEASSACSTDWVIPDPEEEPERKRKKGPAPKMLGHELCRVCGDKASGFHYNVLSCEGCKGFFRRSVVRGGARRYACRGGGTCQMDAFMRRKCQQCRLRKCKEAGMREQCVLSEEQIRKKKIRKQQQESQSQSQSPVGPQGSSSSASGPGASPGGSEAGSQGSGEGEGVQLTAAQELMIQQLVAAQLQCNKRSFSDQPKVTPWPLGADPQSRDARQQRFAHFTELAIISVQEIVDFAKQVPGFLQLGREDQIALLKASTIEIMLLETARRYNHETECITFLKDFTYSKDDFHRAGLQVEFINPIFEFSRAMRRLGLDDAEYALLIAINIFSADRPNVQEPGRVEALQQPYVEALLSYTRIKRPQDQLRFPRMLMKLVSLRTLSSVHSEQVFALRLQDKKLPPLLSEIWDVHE

[3] = molecular target: T3, Oxysterols receptor LXR-alpha (Homo sapiens) (UniProt Q13133); test: Agonist activity at human LXRalpha expressed in HEK293 cells co-expressing CMX-beta-galactosidase at 30 uM incubated for 16 hrs by luciferase reporter gene assay; format: cell-based
T3 sequence (whole entry): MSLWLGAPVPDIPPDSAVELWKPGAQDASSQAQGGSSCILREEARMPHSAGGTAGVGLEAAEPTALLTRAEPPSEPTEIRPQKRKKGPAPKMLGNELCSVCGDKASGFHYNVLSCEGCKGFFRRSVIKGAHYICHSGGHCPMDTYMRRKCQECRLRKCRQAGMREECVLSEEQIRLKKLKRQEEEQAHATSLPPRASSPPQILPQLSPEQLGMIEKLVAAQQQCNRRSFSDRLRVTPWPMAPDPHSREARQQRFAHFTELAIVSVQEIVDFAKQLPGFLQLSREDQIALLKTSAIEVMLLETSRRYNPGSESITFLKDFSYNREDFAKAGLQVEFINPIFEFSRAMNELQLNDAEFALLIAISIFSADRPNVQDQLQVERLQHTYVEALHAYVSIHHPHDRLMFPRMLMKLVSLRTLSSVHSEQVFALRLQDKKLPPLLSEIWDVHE

[4] = molecular target: T4, Oxysterols receptor LXR-beta (Homo sapiens) (UniProt P55055); test: Agonist activity at human LXRbeta expressed in HEK293 cells co-expressing CMX-beta-galactosidase incubated for 16 hrs by luciferase reporter gene assay relative to T0901317; format: cell-based
T4 sequence (whole entry): T2 sequence (P55055 whole entry)

[5] = molecular target: T5, Oxysterols receptor LXR-beta (Mus musculus) (UniProt Q60644); test: Agonist activity at mouse LXRbeta expressed in HEK293 cells co-expressing CMX-beta-galactosidase incubated for 16 hrs by luciferase reporter gene assay relative to T0901317; format: cell-based
T5 sequence (whole entry): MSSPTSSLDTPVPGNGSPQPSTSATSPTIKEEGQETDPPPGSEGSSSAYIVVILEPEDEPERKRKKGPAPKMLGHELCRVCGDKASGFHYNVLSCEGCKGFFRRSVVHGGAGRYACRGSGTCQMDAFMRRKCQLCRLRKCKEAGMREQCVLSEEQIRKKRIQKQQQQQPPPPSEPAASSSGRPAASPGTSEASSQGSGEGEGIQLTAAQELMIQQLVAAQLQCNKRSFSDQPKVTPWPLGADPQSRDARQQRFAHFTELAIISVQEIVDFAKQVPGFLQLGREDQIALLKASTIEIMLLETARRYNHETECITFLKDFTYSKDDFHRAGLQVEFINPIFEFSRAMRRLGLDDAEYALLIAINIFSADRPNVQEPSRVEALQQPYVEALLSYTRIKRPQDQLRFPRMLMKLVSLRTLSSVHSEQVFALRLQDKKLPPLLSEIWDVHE

[6] = molecular target: T6, Oxysterols receptor LXR-beta (Mus musculus, UniProt Q60644); test: Agonist activity at mouse LXRbeta expressed in HEK293 cells co-expressing CMX-beta-galactosidase incubated for 16 hrs by luciferase reporter gene assay; format: cell-based
T6 sequence (Q60644 whole entry): T5 sequence (whole entry)

[7] = Aqueous solubility of the compound in EtOH: 1/15 M phosphate buffer at pH 7.4 1:1 by HPLC method; format: physicochemical
[8] = molecular target: T4, Oxysterols receptor LXR-beta (Homo sapiens); test: Agonist activity at LXRbeta in human THP1 cells assessed as increase in ABCA1 mRNA expression at 1 uM by real-time quantitative RT-PCR method; format: cell-based
[9] = molecular target: T4, Oxysterols receptor LXR-beta (Homo sapiens); test: Agonist activity at human LXRbeta expressed in HEK293 cells co-expressing CMX-beta-galactosidase at 30 uM incubated for 16 hrs by luciferase reporter gene assay; format: cell-based
[10] = molecular target: T4, Oxysterols receptor LXR-beta (Homo sapiens); test: Agonist activity at human LXRbeta expressed in HEK293 cells co-expressing CMX-beta-galactosidase incubated for 16 hrs at 30 uM by luciferase reporter gene assay relative to T0901317; format: cell-based

SMILES	Activity [1]	EC50 [2] [µM]	Activity [3]	Efficacy [4] [%]	Efficacy [5] [%]	EC50 [6] [µM]	solubility [7] [ng/mL]	Activity [8]	Activity [9]	Efficacy [10] [%]
O=C1c2c(Cl)c(Cl)c(Cl)c(Cl)c2C(=O)N1c1ccccc1Cc1ccccc1	inactive	8	inactive	109						
O=C1c2c(Cl)c(Cl)c(Cl)c(Cl)c2C(=O)N1c1ccccc1/C=C/c1ccccc1	inactive	0.27	inactive	143	26	0.3	3.6 (≈ 7.77 nM)	Active		
O=C1c2c(Cl)c(Cl)c(Cl)c(Cl)c2C(=O)N1c1ccccc1/C=C/c1ccsc1	inactive	0.915	inactive	133	23	0.82				
O=C1c2c(Cl)c(Cl)c(Cl)c(Cl)c2C(=O)N1c1ccccc1/C=C/c1ccccn1		4.77	inactive	148						
O=C1c2c(Cl)c(Cl)c(Cl)c(Cl)c2C(=O)N1c1ccccc1-c1ccccc1		1.73	inactive	153						
O=C1c2c(Cl)c(Cl)c(Cl)c(Cl)c2C(=O)N1c1cccc2ccccc12			inactive						inactive	
O=C1c2c(Cl)c(Cl)c(Cl)c(Cl)c2C(=O)N1c1ccccc1/C=C/c1ccco1		4.67	inactive	167						
O=C1c2c(Cl)c(Cl)c(Cl)c(Cl)c2C(=O)N1c1ccccc1Oc1ccccc1	inactive	8.98	inactive	99						
O=C1c2c(Cl)c(Cl)c(Cl)c(Cl)c2C(=O)N1c1ccccc1CCc1ccccc1		4.98	inactive	117						
O=C1c2c(Cl)c(Cl)c(Cl)c(Cl)c2C(=O)N1c1ccccc1/C=C/c1ccncc1		> 10	inactive							35
O=C1c2c(Cl)c(Cl)c(Cl)c(Cl)c2C(=O)N1c1ccccc1/C=C\c1ccccc1		> 10	inactive							104
O=C1c2c(Cl)c(Cl)c(Cl)c(Cl)c2C(=O)N1c1ccccc1/C=C/c1nccs1	inactive	3.61	inactive	151	22	2.93				
O=C1c2c(Cl)c(Cl)c(Cl)c(Cl)c2C(=O)N1c1ccccc1/C=C/c1cccnc1		4.96	inactive	141						
